Experimental data reported in the NIST ThermoML archive (doi:10.1016/j.jct.2007.03.004).
± gives the expanded uncertainty stated by the source.

Key:
[1] = Liquid; for mass density: 293.15 K, 101.33 kPa; for Normal boiling temperature: Distillation
[2] = refractive index (Na D-line) (dimensionless); details: 293.15 K; 101.33 kPa; Liquid; Standard Abbe refractometry

Row | SMILES | mass density [1] [kg/m3] | Normal boiling temperature [1] [°C] | refractive index [2]
1 | CCOC(=O)CCCC(=O)OCC [diethyl glutarate] | 1022.04 ± 1.2 | 236.5 ± 0.2 | 1.42414 ± 0.00078
2 | CCOC(=O)CCCCC(=O)OCC [diethyl hexanedioate] | 1007.63 ± 0.41 | 245.2 ± 0.2 | 1.42725 ± 0.0007
3 | CCC(=O)O [propanoic acid] | 988.04 ± 0.41 | 141.4 ± 0.2 | 1.3808 ± 0.0007
4 | CCOC(=O)CCC(=O)OCC [diethyl butanedioate] | 1040.22 ± 0.5 | 217.7 ± 0.2 | 1.42014 ± 0.0007
